Results reported in PMC9851200, “Multiparameter phenotypic screening for endogenous TFEB and TFE3 translocation identifies novel chemical series modulating lysosome function” (Autophagy, 2022).
Entries after “also recorded” stand apart in the source; their conditions may differ.

Experiments:
PRKD2 = target: T1, PRKD2 (Homo sapiens, UniProt Q9BZL6); conditions: cited from earlier work
T1 sequence (Q9BZL6 1-878): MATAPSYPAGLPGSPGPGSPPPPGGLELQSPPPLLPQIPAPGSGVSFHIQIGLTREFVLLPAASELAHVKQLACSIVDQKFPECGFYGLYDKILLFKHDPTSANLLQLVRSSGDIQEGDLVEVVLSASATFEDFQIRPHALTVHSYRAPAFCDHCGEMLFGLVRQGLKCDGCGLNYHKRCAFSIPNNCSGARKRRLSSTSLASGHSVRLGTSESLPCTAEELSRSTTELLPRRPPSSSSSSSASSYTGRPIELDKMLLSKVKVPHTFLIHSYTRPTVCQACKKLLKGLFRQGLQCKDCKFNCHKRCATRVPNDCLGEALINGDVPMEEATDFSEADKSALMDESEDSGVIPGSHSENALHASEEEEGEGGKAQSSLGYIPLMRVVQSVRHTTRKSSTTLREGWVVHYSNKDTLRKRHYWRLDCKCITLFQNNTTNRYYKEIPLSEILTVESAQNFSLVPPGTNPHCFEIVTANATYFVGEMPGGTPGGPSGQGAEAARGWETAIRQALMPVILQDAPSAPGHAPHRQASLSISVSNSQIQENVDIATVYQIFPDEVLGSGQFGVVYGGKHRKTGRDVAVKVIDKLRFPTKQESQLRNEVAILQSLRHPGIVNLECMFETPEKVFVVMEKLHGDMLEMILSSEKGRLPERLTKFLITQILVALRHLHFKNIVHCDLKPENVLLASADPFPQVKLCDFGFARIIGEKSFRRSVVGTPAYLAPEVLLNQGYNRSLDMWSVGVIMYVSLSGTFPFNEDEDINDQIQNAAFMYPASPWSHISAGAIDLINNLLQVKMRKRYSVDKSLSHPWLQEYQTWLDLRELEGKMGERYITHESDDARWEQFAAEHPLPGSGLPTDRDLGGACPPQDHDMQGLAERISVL

CDC42BPG/DMPK2 = CDC42BPG/DMPK2 (Homo sapiens, UniProt Q6DT37); conditions: cited from earlier work
Sequence of CDC42BPG/DMPK2 (Q6DT37 whole entry): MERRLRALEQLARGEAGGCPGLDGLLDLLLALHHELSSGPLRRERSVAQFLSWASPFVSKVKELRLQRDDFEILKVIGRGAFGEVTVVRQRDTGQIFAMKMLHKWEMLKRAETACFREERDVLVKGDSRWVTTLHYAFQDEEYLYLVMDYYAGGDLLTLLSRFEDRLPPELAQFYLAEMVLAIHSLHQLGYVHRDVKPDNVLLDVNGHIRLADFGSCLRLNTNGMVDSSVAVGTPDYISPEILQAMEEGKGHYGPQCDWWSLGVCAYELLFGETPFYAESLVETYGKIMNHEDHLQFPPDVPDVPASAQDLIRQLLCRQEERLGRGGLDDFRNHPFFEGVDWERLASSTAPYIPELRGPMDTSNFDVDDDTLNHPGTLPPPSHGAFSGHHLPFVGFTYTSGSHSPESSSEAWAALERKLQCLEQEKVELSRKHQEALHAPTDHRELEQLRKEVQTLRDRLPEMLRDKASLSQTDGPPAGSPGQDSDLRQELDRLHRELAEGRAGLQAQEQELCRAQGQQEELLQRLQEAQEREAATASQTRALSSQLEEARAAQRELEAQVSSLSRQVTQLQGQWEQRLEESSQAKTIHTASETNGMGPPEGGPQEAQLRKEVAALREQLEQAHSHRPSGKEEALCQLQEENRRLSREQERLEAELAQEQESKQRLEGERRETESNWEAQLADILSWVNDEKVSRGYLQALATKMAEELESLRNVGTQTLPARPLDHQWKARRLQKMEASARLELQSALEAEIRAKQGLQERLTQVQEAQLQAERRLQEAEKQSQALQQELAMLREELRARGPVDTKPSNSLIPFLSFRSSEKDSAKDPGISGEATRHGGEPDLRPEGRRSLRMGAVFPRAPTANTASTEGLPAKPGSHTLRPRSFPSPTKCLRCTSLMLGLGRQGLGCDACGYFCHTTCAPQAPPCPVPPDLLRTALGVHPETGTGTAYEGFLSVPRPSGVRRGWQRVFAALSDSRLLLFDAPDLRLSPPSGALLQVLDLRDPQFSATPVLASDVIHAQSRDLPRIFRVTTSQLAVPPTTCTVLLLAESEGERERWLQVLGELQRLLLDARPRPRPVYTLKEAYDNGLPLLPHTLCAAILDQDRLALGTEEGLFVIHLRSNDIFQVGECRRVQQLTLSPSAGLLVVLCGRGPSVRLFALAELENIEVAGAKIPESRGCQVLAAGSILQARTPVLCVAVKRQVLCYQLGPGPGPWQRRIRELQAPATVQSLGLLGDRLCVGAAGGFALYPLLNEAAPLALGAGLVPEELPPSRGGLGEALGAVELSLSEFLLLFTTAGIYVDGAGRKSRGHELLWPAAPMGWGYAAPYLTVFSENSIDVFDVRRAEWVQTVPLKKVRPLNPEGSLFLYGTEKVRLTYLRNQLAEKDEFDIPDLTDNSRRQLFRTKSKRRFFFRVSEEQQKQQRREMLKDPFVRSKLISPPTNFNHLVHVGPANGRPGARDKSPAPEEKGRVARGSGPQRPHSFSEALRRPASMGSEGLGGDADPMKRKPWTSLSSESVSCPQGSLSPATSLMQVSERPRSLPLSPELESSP

SH-SY5Y cells [1] = assay: Nuclear count from microscopy images (cellular growth and toxicity); conditions: for Nuclear Count: PKIS2 primary screening
endogenous TFEB = assay: TFEB nuclear translocation, immunocytochemistry high-content imaging; assay type: cell-based; conditions: for TFEB %: PKIS2 primary screening; for TFEB translocation (in words): SH-SY5Y; as to TFEB %: test concentration or dose not given here
CSNK1D = CSNK1D (Homo sapiens, UniProt P48730); conditions: cited from earlier work
Sequence of CSNK1D (P48730 whole entry): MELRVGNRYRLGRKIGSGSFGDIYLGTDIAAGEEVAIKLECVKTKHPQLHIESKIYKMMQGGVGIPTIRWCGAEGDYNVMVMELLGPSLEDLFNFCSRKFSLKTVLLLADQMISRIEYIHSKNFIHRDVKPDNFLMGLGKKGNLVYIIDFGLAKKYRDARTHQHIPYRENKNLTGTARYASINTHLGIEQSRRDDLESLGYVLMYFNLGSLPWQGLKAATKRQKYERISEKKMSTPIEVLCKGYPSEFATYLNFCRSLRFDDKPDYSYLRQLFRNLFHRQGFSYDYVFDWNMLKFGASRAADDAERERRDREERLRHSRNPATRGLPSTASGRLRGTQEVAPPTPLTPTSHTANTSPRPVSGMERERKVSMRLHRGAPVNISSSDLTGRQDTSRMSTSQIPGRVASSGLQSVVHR

JAK1(JH2) = target: T2, JAK1(JH2) (Homo sapiens, UniProt P23458); conditions: cited from earlier work
T2 construct: JAK1(JH2)
T2 sequence (P23458 583-855 limits assumed): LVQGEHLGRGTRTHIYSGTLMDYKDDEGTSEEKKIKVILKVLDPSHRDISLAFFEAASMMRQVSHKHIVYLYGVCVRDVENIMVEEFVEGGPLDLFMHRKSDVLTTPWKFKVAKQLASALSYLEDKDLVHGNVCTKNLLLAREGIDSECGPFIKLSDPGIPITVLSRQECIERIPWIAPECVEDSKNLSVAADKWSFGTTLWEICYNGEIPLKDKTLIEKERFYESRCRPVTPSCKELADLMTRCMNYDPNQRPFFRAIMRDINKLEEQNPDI

PRKD3 = target: T3, PRKD3 (Homo sapiens, UniProt O94806); conditions: cited from earlier work
T3 sequence (O94806 1-890): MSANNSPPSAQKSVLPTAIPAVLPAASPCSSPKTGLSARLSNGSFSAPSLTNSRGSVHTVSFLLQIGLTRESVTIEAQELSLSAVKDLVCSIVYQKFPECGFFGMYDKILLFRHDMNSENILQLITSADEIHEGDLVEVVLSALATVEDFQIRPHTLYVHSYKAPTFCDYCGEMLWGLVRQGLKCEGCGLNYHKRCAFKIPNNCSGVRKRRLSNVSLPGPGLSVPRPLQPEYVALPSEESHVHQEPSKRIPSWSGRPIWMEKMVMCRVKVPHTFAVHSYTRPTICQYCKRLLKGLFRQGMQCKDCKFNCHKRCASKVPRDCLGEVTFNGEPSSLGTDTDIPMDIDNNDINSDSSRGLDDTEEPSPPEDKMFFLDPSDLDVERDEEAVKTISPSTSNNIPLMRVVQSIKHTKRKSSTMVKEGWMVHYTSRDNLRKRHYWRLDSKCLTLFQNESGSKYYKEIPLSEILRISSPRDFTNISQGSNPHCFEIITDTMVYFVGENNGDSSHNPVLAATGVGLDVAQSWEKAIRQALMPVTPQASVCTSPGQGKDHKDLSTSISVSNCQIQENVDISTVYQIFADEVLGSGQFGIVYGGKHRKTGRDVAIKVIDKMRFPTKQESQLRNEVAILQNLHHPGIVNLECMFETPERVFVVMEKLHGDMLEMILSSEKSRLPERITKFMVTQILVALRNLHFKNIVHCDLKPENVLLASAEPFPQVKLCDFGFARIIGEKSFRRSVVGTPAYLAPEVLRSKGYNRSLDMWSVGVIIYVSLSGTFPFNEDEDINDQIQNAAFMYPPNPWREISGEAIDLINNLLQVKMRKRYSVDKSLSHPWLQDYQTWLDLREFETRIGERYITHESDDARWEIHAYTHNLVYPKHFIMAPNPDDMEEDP

CDC42BPB/MRCKB = CDC42BPB/MRCKB (Homo sapiens, UniProt Q9Y5S2); conditions: cited from earlier work
Sequence of CDC42BPB/MRCKB (Q9Y5S2 whole entry): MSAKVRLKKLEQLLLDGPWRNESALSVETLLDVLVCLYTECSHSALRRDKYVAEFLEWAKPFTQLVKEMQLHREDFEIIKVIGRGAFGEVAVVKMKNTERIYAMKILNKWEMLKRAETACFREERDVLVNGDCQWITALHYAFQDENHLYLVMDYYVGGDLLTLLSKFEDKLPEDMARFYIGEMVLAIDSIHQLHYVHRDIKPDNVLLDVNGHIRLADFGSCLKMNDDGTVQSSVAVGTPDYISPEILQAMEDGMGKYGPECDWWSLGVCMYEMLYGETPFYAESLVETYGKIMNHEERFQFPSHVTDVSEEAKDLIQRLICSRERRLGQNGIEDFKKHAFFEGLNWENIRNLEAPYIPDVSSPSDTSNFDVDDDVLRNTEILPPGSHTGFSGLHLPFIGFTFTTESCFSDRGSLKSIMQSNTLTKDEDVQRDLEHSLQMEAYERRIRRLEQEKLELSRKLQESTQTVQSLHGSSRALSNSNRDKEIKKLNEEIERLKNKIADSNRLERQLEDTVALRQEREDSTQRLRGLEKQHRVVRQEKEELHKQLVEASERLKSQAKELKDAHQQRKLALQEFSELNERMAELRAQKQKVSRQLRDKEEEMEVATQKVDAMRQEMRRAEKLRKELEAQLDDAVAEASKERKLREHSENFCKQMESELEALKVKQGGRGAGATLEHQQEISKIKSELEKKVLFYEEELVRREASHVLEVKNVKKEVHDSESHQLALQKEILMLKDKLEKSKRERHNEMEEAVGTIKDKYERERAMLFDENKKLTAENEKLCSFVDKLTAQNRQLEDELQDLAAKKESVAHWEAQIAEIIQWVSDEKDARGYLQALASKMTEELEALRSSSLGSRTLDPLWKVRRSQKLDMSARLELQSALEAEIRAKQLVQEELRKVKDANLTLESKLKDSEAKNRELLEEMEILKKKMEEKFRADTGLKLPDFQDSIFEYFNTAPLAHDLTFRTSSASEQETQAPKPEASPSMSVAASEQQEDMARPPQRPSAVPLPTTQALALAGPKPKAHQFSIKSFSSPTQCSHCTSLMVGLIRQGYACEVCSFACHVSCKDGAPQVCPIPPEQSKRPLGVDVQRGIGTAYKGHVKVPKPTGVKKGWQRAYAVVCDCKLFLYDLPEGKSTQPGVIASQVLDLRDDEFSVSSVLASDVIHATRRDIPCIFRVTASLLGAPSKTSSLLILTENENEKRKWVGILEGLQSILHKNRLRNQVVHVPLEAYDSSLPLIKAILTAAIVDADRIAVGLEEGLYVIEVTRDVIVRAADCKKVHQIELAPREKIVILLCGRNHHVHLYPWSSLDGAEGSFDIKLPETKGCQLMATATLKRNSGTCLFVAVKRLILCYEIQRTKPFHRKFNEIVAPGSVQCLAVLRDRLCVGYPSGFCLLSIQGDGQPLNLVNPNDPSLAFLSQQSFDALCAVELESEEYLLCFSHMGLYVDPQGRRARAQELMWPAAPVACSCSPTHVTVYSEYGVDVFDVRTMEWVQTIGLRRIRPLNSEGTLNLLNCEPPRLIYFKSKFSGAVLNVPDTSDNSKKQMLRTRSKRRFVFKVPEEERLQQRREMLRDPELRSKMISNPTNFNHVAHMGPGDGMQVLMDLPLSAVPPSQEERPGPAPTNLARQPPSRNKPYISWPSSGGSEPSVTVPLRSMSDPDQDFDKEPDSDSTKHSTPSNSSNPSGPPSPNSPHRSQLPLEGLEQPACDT

TGFBR2 = TGFBR2 (Homo sapiens, UniProt P37173); conditions: cited from earlier work
Sequence of TGFBR2 (P37173 23-567): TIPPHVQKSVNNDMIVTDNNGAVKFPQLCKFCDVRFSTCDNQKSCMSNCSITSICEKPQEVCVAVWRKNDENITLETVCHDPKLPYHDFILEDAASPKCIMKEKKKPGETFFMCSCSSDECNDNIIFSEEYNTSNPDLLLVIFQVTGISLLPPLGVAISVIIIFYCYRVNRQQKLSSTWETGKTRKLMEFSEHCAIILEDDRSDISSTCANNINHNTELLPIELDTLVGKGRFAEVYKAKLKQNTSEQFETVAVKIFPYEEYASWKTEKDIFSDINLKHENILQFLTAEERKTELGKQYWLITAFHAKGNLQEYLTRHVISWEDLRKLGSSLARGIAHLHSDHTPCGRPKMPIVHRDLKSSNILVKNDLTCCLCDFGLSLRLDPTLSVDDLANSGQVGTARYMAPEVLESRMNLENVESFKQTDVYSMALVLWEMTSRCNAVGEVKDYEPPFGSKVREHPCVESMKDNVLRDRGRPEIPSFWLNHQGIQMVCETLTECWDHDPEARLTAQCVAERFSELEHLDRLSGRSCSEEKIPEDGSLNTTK

SH-SY5Y cells [2] = assay: AK (adenylate kinase) release ToxiLight cytotoxicity assay; conditions: for AK: PKIS2 primary screening
Experimental: Total cell lysis with 5 µL 5% Triton-X 100 (Sigma-Aldrich, T8787) is used as a positive control for the assay and toxicity is expressed as a percentage of luminescence under DMSO conditions.

MTOR = MTOR (Homo sapiens, UniProt P42345); conditions: cited from earlier work
CIT = CIT (Homo sapiens, UniProt O14578); conditions: cited from earlier work

Structure (SMILES) | KINOMEscan binding PRKD2 (PRKD2) [%] | KINOMEscan binding CDC42BPG/DMPK2 (CDC42BPG/DMPK2) [%] | Nuclear Count (SH-SY5Y cells [1]) | TFEB % (endogenous TFEB) [%] | KINOMEscan binding CSNK1D (CSNK1D) [%] | KINOMEscan binding JAK1(JH2) (JAK1(JH2)) [%] | KINOMEscan binding PRKD3 (PRKD3) [%] | KINOMEscan binding CDC42BPB/MRCKB (CDC42BPB/MRCKB) [%] | KINOMEscan binding TGFBR2 (TGFBR2) [%] | AK (SH-SY5Y cells [2]) | KINOMEscan binding MTOR (MTOR) [%] | KINOMEscan binding CIT (CIT) [%] | further results
Cc1cccc(-c2nc(C)cc(Nc3ccncc3)n2)n1 [GSK257997] | 80 | 89 | 128.02 | 2.98 | 43 | 0 | 85 | 81 | 4 | 66.29 | 13 | 23 | TFEB translocation (in words) (endogenous TFEB; 24 h treatment): did not show TFEB and TFE3 activation
Cc1cccc(-c2cc(Nc3ccncc3)c3ccccc3n2)n1 [GSK223675] | 96 | 7 | 85.07 | 7.90 | 14 | 5 | 100 | 0 | 0 | 117.83 | 7 | 23 | 
Cc1csc(-c2nc(Nc3ccncc3)c3ccccc3n2)n1 [GW869640] | 78 | 35 | 81.77 | 2.75 | 46 | 74 | 71 | 44 | 88 | 59.35 | 74 | 61 | 
Cc1cccc(-c2nc(Nc3ccc4c(cnn4C)c3)c3ccccc3n2)n1 [GW876731] | 99.6 | 22 | 107.18 | 18.65 | 50 | 16 | 90.2 | 34 | 0 | 73.05 | 0 | 12 | 
Cc1cccc(-c2nc(Nc3ccc4ncsc4c3)c3ccccc3n2)n1 [GW867588] | 99.8 | 9 | 62.46 | 27.23 | 0 | 62 | 66 | 33 | 0 | 60.47 | 0 | 13 | 
Clc1cccc(-c2nc(Nc3ccncc3)c3ccccc3n2)c1 [GW873004] | 45 | 84 | 66.61 | 4.68 | 12 | 16 | 44 | 42 | 17 | 129.21 | 36 | 57 | 
Cc1cccc(-c2nc(Nc3ccncc3)c3ccccc3n2)n1 [GW855857] | 99 | 76 | 124.29 | 6.50 | 73 | 74 | 69 | 63 | 95.7 | 89.05 | 50 | 91.1 | 
Cc1cccc(-c2nc(Nc3ccc4nn[nH]c4c3)c3ccccc3n2)n1 [GW867587] | 98.1 | 0 | 123.89 | 14.22 | 4 | 52 | 66 | 2 | 0 | 54.27 | 5 | 15 | 
Cc1cc(Nc2nc(-c3cccc(C)n3)nc3ccccc23)ccn1 [GW872411] | 99.9 | 2 | 94.17 | 5.91 | 35 | 81 | 76 | 0 | 0 | 69.93 | 73 | 0 | 
Cc1cccc(-c2nc(Nc3cccc(C(N)=O)c3)c3ccccc3n2)n1 [GW876019] | 66 | 0 | 75.33 | 7.94 | 8 | 78 | 87 | 32 | 15 | 199.56 | 35 | 45 | 
Cc1cccc(-c2nc(Nc3ccc4ncsc4c3)c3ccccc3n2)n1 [NK140] |  |  |  |  |  |  |  |  |  |  |  |  | Nuclear count (in words) (SH-SY5Y cells [1]; SH-SY5Y, 48 h treatment): small reduction in nuclear count from 0.75 µM; TFEB translocation (in words) (endogenous TFEB; 24 h treatment): modest TFEB and TFE3 translocation; TFEB translocation (in words) (endogenous TFEB; 48 h treatment): induced; also recorded: elevated TFEB and TFE3 translocation; AK signal (in words) (SH-SY5Y cells [2]; SH-SY5Y, 24 h treatment): reduced; Cellular toxicity (AK release and nuclear count, in words) (SH-SY5Y cells [2]; SH-SY5Y, 24 h treatment): no increases in DQ Red BSA intensity or cellular toxicity; AK release (in words) (SH-SY5Y cells [2]; SH-SY5Y, 48 h treatment): without increases in AK
Cc1cccc(-c2nc(Nc3ccncc3)c3ccccc3n2)n1 [NK215] |  |  |  |  |  |  |  |  |  |  |  |  | KINOMEscan PRKD2 (PRKD2; PRKD2, Published KINOMEscan, ref original PKIS2 published data): 99; KINOMEscan CDC42BPG/DMPK2 (CDC42BPG/DMPK2): 76; KINOMEscan CSNK1D (CSNK1D; CSNK1D, Published KINOMEscan, ref original PKIS2 published data): 73; KINOMEscan JAK1(JH2domain-pseudokinase) (JAK1(JH2); JAK1(JH2domain-pseudokinase), Published KINOMEscan, ref original PKIS2 published data): 74; KINOMEscan PRKD3 (PRKD3; kinase PRKD3, Published KINOMEscan, ref original PKIS2 published data): 69; KINOMEscan CDC42BPB/MRCKB (CDC42BPB/MRCKB): 63; KINOMEscan TGFBR2 (TGFBR2; TGFBR2, Published KINOMEscan, ref original PKIS2 published data): 95.7; KINOMEscan MTOR (MTOR; MTOR, Published KINOMEscan, ref original PKIS2 published data): 50; KINOMEscan CIT (CIT; CIT, Published KINOMEscan, ref original PKIS2 published data): 91.1
